Laboratory results taken from patent publication US20240115221A1, “POSITRON IMAGING TOMOGRAPHY IMAGING AGENT C[…] METHOD FOR BACTERIAL INFECTION” (The Research Foundation for the State University of New York, priority 2016, published 2024).

Legend:
Vero cells = experiment: Cytotoxicity for Vero cells; assay type: cell-based
Method: (§1) Expressed and purified dihydropteroate synthase (DHPS) from S. aureus (saDHPS) was cloned. DHPS is the enzyme that installs PABA (p-aminobenzoic acid) in the folate biosynthesis pathway (Scheme 2). […] Using a coupled assay, it was determined that the kinetic parameters for saDHPS with PABA, PAS and F-PABA. […] Since PAS is an antibacterial compound whose mechanism of action may be related for the ability of this compound to compete with PABA for DHPS, we determined the antibacterial activity and cytotoxicity of F-PABA for several bacterial species as well as Vero cells. In each case no growth inhibition was observed up to 200 μg/ml.

[1] = tested on: several bacterial species; experiment: Antibacterial activity for several bacterial species; assay type: cell-based
[2] = molecular target: T1, dihydropteroate synthase (DHPS) from S. aureus (saDHPS) (Staphylococcus aureus, UniProt O05701); experiment: Coupled assay, kinetic parameters for saDHPS; assay type: biochemical
T1 construct: made in house
T1 sequence (O05701 whole entry): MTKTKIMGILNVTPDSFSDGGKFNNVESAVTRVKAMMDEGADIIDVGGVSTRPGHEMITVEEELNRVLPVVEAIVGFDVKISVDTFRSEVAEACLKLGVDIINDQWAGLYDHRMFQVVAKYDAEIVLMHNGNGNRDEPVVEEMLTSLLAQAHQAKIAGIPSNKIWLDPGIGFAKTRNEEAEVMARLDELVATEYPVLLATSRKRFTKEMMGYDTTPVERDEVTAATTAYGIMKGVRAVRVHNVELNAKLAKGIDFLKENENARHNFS
Method: as §1

E. coli [3] = experiment: MIC determination (antibacterial activity); assay type: cell-based; conditions: Escherichia coli
Method: as §1

S. aureus [4] = experiment: MIC determination (antibacterial activity); assay type: cell-based; conditions: Staphylococcus aureus
Method: as §1

M. tuberculosis = experiment: MIC determination (antibacterial activity); assay type: cell-based; conditions: Mycobacterium tuberculosis
Method: as §1

[5] = tested on: methicillin sensitive S. aureus (MSSA, Newman); experiment: Uptake of [18F]F-PABA by bacteria; assay type: cell-based
From the text: (§2) The ability of different bacterial species to take up [^18F] F-PABA was studied. The radiotracer accumulated in both methicillin sensitive S. aureus (MSSA, Newman) and methicillin-resistant S. aureus (MRSA), as well as the Gram negative bacteria E. coli and Klebsiela pneumoniae.
(§3) In contrast, [^18F]F-PABA was not taken up by Enterococcus faecalis. E. faecalis has a folate salvage pathway and can take up folate from the environment. Thus, folic acid biosynthesis is dispensable in this organism, which also explains why sulfonamides are not used to treat infection by E. faecalis.

E. coli [6] = experiment: Uptake of [18F]F-PABA by bacteria; assay type: cell-based
From the text: as §2

[7] = tested on: methicillin-resistant S. aureus (MRSA); experiment: Uptake of [18F]F-PABA by bacteria; assay type: cell-based
From the text: as §2

Klebsiela pneumoniae = experiment: Uptake of [18F]F-PABA by bacteria; assay type: cell-based
From the text: as §2

Newman S. aureus [8] = experiment: Rat triceps infection versus sterile inflammation (heat-killed S. aureus); assay type: in vivo; conditions: right triceps infected, left triceps heat-killed S. aureus
Method: One of the main limitations of using FDG to image infection is that FDG accumulates in the mammalian cells involved in the inflammatory response to infection. It was analyzed how inflammation affected the biodistribution of [^18F]F-PABA by generating an inflammatory response using 50 μL of […] of Newman S. aureus heat-killed bacteria.
accumulation of [^18F]F-PABA at the site of infection is likely not due to uptake by cells involved in the inflammatory response.

Enterococcus faecalis = experiment: Uptake of [18F]F-PABA by bacteria; assay type: cell-based
From the text: as §3

S. aureus [9] = experiment: Rat triceps infection, tracer accumulation and bacterial load under vancomycin treatment
From the text: A key goal is to identify a tracer that can be used to quantify bacterial load and monitor the change in bacterial load during and following antibiotic treatment.

Newman S. aureus [10] = experiment: Rat triceps S. aureus infection model, PET imaging and ex vivo counting; assay type: in vivo
Method: Initial in vivo studies focused on soft tissue models of MSSA infection. This included a mouse thigh infection model and rat triceps model. […] Fifty μL of 10^9 CFU of Newman S. aureus BHI culture was injected into the right triceps of a rat. After 10-15 hr the rats were imaged following iv administration of 0.8-1.2 mCi of [^18F]F-PABA. The images clearly show the accumulation of radioactivity in the right but not the left triceps. In addition to monitoring the time course of [^18F]F-PABA biodistribution, we also quantified tracer levels by postmortem ex vivo counting. […] At 60 min tracer levels were 5.4× higher in the infected right triceps compared to the uninfected left triceps. This compares favorably with other tracers.

[11] = after a further 3 doses of vancomycin

Nc1ccc(C(=O)O)c(F)c1 [2-F-PABA, 2-fluoro-4-aminobenzoic acid]
concentration up to which no growth inhibition was observed (cytotoxicity) (Vero cells): > 200 µg/mL | MIC ([1]; discussion, species not named): > 100 µg/mL | concentration up to which no growth inhibition was observed ([1]; several bacterial species): > 200 µg/mL | antibacterial activity ([1]; summary of Table 1): no antibacterial activity | substrate for saDHPS [2]: alternative substrate for saDHPS | MIC (E. coli [3]): > 200 µg/mL | MIC (S. aureus [4]): > 200 µg/mL | MIC (M. tuberculosis): > 100 µg/mL

Nc1ccc(C(=O)O)c([18F])c1 [[^18F]F-PABA, 4-Amino-2-[^18f]-fluorobenzoic acid]
uptake of radiotracer ([5]; heat-killed MSSA cells): unable to take up | uptake of radiotracer ([5]; viable MSSA (Newman)): accumulated | uptake of radiotracer (E. coli [6]): accumulated | uptake of radiotracer [7]: accumulated | uptake of radiotracer (Klebsiela pneumoniae): accumulated | radiotracer levels at site of infection compared to site of sterile inflammation (Newman S. aureus [8]): 10 fold | uptake of radiotracer (Enterococcus faecalis): not taken up | tracer accumulation in infected triceps (S. aureus [9]; after 3 doses of vancomycin): 0.015±0.005 %1D/cc | decrease in tracer levels (S. aureus [9]; after 3 doses of vancomycin versus before treatment): ~3 fold | tracer accumulation in infected triceps (S. aureus [9]; [11]): 0.013±0.002 % 10/cc | tracer accumulation in infected triceps (S. aureus [9]; before treatment): 0.051±0.008 %1D/cc | tracer levels in the uninfected triceps (S. aureus [9]; uninfected triceps): 0.007±0.001 %1D/cc | tracer levels in infected right triceps compared to uninfected left triceps (Newman S. aureus [10]; iv 0.8-1.2 mCi, at 60 min): 5.4 × | biodistribution of tracer (Newman S. aureus [10]; iv, postmortem ex vivo counting): distributed to all tissues and organs with the exception of the brain

CN[C@H](CC(C)C)C(=O)N[C@H]1C(=O)N[C@@H](CC(N)=O)C(=O)N[C@H]2C(=O)N[C@H]3C(=O)N[C@H](C(=O)N[C@H](C(=O)O)c4cc(O)cc(O)c4-c4cc3ccc4O)[C@H](O)c3ccc(c(Cl)c3)Oc3cc2cc(c3O[C@@H]2O[C@H](CO)[C@@H](O)[C@H](O)[C@H]2O[C@H]2C[C@](C)(N)[C@H](O)[C@H](C)O2)Oc2ccc(cc2Cl)[C@H]1O [vancomycin, reference compound]
bacterial burden of infected triceps (S. aureus [9]; after 3 doses of vancomycin): 8.1±0.3 Log10 CFU | decrease in bacterial burden (S. aureus [9]; after 3 doses of vancomycin): ~3 logs | bacterial burden of infected triceps (S. aureus [9]; [11]): 7.0±0.9 Log10 CFU | additional decrease in bacterial burden (S. aureus [9]; further 3 doses of vancomycin): 1 log
